The values below are quoted from earlier work in patent US20030004116A1, “Noni extract for prevention of disease” (priority 2001, published 2003).

One series deals with K-ras-NRK cells. Conditions: reversible when compound withdrawn.
For series [1], the system named is RSV-NRK cells expressing the src oncogene.

For `COc1c(C=O)c(O)cc2c1C(=O)c1ccccc1C2=O` [Damnacathal], the “morphology and cytoskeletal structure” value in the series on K-ras-NRK cells was “induced normal morphology and cytoskeletal structure”. Besides, the effect on cells entry in series [1] is “no effect”.
